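Assay format: 96-well plates, 48-hour exposure. At the TGI there is no net growth.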
Experiments:
Assay in all cases: NCI tumour cell line growth inhibition, 48 h
[1] = test system: ACHN renal
[2] = test system: SK-MEL-5 melanoma
[3] = test system: NCI/ADR-RES ovarian
[4] = test system: CCRF-CEM leukemia
[5] = test system: UACC-62 melanoma
[6] = test system: T-47D breast
[7] = test system: PC-3 prostate
[8] = test system: 786-0 renal
[9] = test system: M14 melanoma
[10] = test system: MDA-MB-435
[11] = test system: NCI-H23 lung
[12] = test system: MDA-MB-231 breast
[13] = test system: SK-OV-3 ovarian
[14] = test system: SNB-19 CNS
[15] = test system: LOX IMVI melanoma
[16] = test system: OVCAR-3 ovarian
[17] = test system: NCI-H226 lung

SMILES | TGI [1] | TGI [2] | TGI [3] | TGI [4] | TGI [5] | TGI [6] | TGI [7] | TGI [8] | TGI [9] | TGI [10] | TGI [11] | TGI [12] | TGI [13] | TGI [14] | TGI [15] | TGI [16] | TGI [17]
CC1CCC2(OC1)OC1C(O)C3C4CCC5CC(OC6OC(CO)C(OC7OC(CO)C(O)C(OC8OCC(O)C(O)C8O)C7OC7OC(CO)C(O)C(OC8OC(CO)C(O)C(O)C8O)C7O)C(O)C6O)C(O)CC5(C)C4CCC3(C)C1C2C (stereo not given) | 3.08 µM | 15.9 µM | 13.6 µM | 10.5 µM | 14.1 µM | 10.4 µM | 10.3 µM | 2.96 µM | 24.9 µM | 30 µM | 4.41 µM | 4.3 µM | 5.57 µM | 4.34 µM | 12.1 µM | 3.32 µM | 3.33 µM
CC(C)=CCC[C@@H](C)C1=C(O)C(Nc2ccccc2I)=C(C)C(=O)C1=O | 44 µM | 23 µM | > 17.6 µM | > 20.9 µM | 31.3 µM | 47.5 µM | > 51.8 µM | > 58.7 µM | > 58.9 µM | > 75 µM | 38.9 µM | > 75 µM | 61.5 µM | > 75 µM | > 75 µM | > 47.5 µM | 18.4 µM
COc1cccc(C2c3cc4c(cc3OC(Nc3ccccc3)C2C)OCO4)c1O (stereo not given) | > 68.3 µM | 17.7 µM | > 100 µM | 16.6 µM | 29 µM | > 75.4 µM | 36.9 µM | 32.1 µM | 15.1 µM | 5.66 µM | 45.2 µM | 37 µM | > 71.6 µM | 74 µM | 18.9 µM | 29.9 µM | 33.2 µM
O=c1c2nc(-c3ccccc3)oc2n(-c2ccccc2)c(=O)n1-c1ccccc1 | > 46.4 µM | > 31.6 µM | > 31.6 µM | > 46.4 µM | > 46.4 µM | > 46.4 µM | > 46.4 µM | 31.7 µM | > 46.4 µM | > 46.4 µM | > 46.4 µM | > 46.4 µM | 40.1 µM | 36 µM | > 46.4 µM | > 46.4 µM | 44.1 µM
CCNc1cc2c3c(c1)CCN3CCC2 | > 10 µM | > 10 µM | > 10 µM | > 10 µM | > 10 µM | > 10 µM | > 10 µM | > 10 µM | > 10 µM | > 10 µM | > 10 µM | > 10 µM | > 10 µM | > 10 µM | > 10 µM | > 10 µM | > 10 µM
Cc1c([C@H](C)[C@@H]2NC[C@@H](C)C[C@H]2O)ccc2c1C[C@H]1[C@H]2CC=C2C[C@@H](O)CC[C@@]21C | 37.6 µM | 22.9 µM | > 100 µM | 38.4 µM | 28.1 µM | 53.2 µM | 32.1 µM | 37.9 µM | 31.4 µM | 26.4 µM | 37.9 µM | 35.4 µM | 76.9 µM | 82.3 µM | 27 µM | 41.5 µM | 38.1 µM
O=c1[nH]c(=O)n(C2OC(CO)C(O)C2O)cc1OCCCc1ccccc1 (stereo not given) | > 100 µM | > 100 µM | > 100 µM | > 100 µM | > 100 µM | > 100 µM | > 100 µM | > 100 µM | > 100 µM | > 100 µM | > 100 µM | > 100 µM | > 100 µM | > 100 µM | > 100 µM | > 100 µM | > 100 µM
CC(C)(C)OC(=O)c1ccc(NCC2=C(Br)C(=O)C=CC2=O)cc1 | 33.6 µM | 41.6 µM | 62.9 µM | > 24.9 µM | 36.1 µM | 41.4 µM | > 100 µM | 37.5 µM | 85.4 µM | 41.3 µM | 50.6 µM | 47 µM | > 100 µM | > 100 µM | 31.4 µM | 27.7 µM | > 90.1 µM
CCN(CC)C(=O)CCN1CC1 | > 10 µM | > 10 µM | > 10 µM | > 10 µM | > 10 µM | > 10 µM | > 10 µM | > 10 µM | > 10 µM | > 10 µM | > 10 µM | > 10 µM | > 10 µM | > 10 µM | > 10 µM | > 10 µM | > 10 µM
NC(=S)NC/C=C/Cl | > 100 µM | > 100 µM | > 100 µM | > 100 µM | > 100 µM | > 100 µM | > 100 µM | > 100 µM | > 100 µM | > 100 µM | > 100 µM | > 100 µM | > 100 µM | > 100 µM | > 100 µM | > 100 µM | > 100 µM
COC(=O)Nc1nc2ccc(NC(=O)c3ccc(I)cc3)cc2[nH]1 | > 100 µM | > 100 µM | > 100 µM | > 100 µM | > 100 µM | > 100 µM | > 100 µM | > 100 µM | > 100 µM | > 100 µM | > 100 µM | > 100 µM | > 100 µM | > 100 µM | > 100 µM | > 100 µM | > 100 µM
O=c1[nH]nc(Cc2ccc(Cl)cc2)n1/N=C/c1ccc([N+](=O)[O-])o1 | 11.4 µM | > 38.5 µM | > 35.5 µM | > 37 µM | 9.09 µM | > 77.6 µM | > 75.1 µM | 11.1 µM | 5.68 µM | 11.9 µM | 16.8 µM | > 34.7 µM | > 36.3 µM | 33.3 µM | > 24.8 µM | 25.9 µM | 43.3 µM
CC1(C)CC[C@]2(C(=O)O)CC[C@]3(C)[C@H](C(=O)C=C4[C@@]5(C)C=C(C#N)C(=O)C(C)(C)[C@@H]5CC[C@]43C)[C@@H]2C1 | 4.47 µM | 1.69 µM | 4.68 µM | > 100 µM | 4.43 µM | 4.34 µM | 1.97 µM | 3.39 µM | 4.32 µM | 3 µM | 0.628 µM | 7.34 µM | 14.8 µM | 3.64 µM | 1.1 µM | 0.785 µM | 4.02 µM
OC(NN=C1CCCC1)(C(F)(F)Cl)C(F)(F)Cl | > 10 µM | > 10 µM | > 10 µM | > 10 µM | > 10 µM | > 10 µM | > 10 µM | > 10 µM | > 10 µM | > 10 µM | > 10 µM | > 10 µM | > 10 µM | > 10 µM | > 10 µM | > 10 µM | > 10 µM
N#Cc1c(N)nc2c3c1NC(=O)C(C(N)=O)C3c1ccccc1O2 (stereo not given) | > 100 µM | > 100 µM | > 100 µM | > 100 µM | > 100 µM | > 100 µM | > 100 µM | > 100 µM | > 100 µM | > 100 µM | > 100 µM | > 100 µM | > 100 µM | > 100 µM | > 100 µM | > 100 µM | > 100 µM
CC(C)CCOC(=O)NC(Nc1ccc(F)cc1)(C(F)(F)F)C(F)(F)F | > 100 µM | > 100 µM | > 100 µM | 99.5 µM | > 100 µM | 78.5 µM | > 100 µM | > 100 µM | > 100 µM | > 100 µM | > 100 µM | 76.1 µM | > 100 µM | > 100 µM | > 100 µM | > 100 µM | > 100 µM
CC(CNC(N)=O)NC(N)=O (stereo not given) | > 100 µM | > 100 µM | > 100 µM | > 100 µM | > 100 µM | > 100 µM | > 100 µM | > 100 µM | > 100 µM | > 100 µM | > 100 µM | > 100 µM | > 100 µM | > 100 µM | > 100 µM | > 100 µM | > 100 µM
CCSC1=CC2(O)N(CCc3ccc(OC)c(OC)c3)C(=O)CC2(C(=O)OC)CC1=O (stereo not given) | > 100 µM | > 100 µM | > 100 µM | > 100 µM | 39.8 µM | 48.5 µM | 35.5 µM | 34 µM | 56.4 µM | 46 µM | 33.2 µM | 35.4 µM | > 100 µM | > 100 µM | 37.3 µM | 33.6 µM | > 100 µM
O=[Se](O)O | 76.6 µM | 8.68 µM | > 54.9 µM | > 100 µM | 4.66 µM | > 62.9 µM | 7.63 µM | 7.35 µM | 23.4 µM | > 100 µM | > 94.4 µM | 3.05 µM | 12.8 µM | > 22 µM | > 100 µM | 10.7 µM | 2.48 µM
Oc1ccc(Oc2cc3c(cc2Oc2ccc(O)cc2)-c2nc-3nc3[nH]c(nc4nc(nc5[nH]c(n2)c2cc(Oc6ccc(O)cc6)c(Oc6ccc(O)cc6)cc52)-c2cc(Oc5ccc(O)cc5)c(Oc5ccc(O)cc5)cc2-4)c2cc(Oc4ccc(O)cc4)c(Oc4ccc(O)cc4)cc32)cc1 | > 100 µM | > 100 µM | > 100 µM | > 100 µM | > 100 µM | > 100 µM | > 100 µM | > 100 µM | 30.3 µM | > 100 µM | > 100 µM | 52.4 µM | > 100 µM | > 100 µM | > 100 µM | > 100 µM | > 100 µM
